Reference: patent US7332476B2, “Pyridyl substituted ketolide antibiotics” (Novartis AG, priority 2003, dated 2008)
Values after ≈ are worked out from the molar mass of the structure shown.

Assays:
Experiment in all cases: MIC, broth microdilution (NCCLS)
[1] = test system: Streptococcus pyogenes Stpy_8668; assay type: cell-based; settings: Table 7, Strain ID E (Table 6): S. pyogenes Stpy_8668
Description: (§1) Strains. The bacterial isolates listed in Table 4 were cultivated from −70° C. frozen stocks by two consecutive overnight passages (P1, P2) at 35° C. on 5% blood agar (Remel, Lenexa, Kans.). Chocolate agar (Remel) is used for Haemophilus influenzae. H. influenzae and Streptococcus pneumoniae are incubated in 5-10% CO2
(§2) Drug Stock Preparation. To determine the amount of solvent to be used to give the desired final concentration, the formula “weight obtained in mg/final concentration in mg/ml” will be used. It will give the amount of solvent in ml needed to be added to give the desired concentration. For example, if 2.5 mg/ml is the desired concentration and the weight of compound is 13.7 mg, then the amount of solvent to be added is […]. Methanol is used as the solvent to dissolve the test compounds. Further dilution of stock is done in sterile, deionized water. Drug stocks are kept frozen at −70° C., protected from light.
(§3) Susceptibility Testing. MICs are determined by the broth microdilution method in accordance with the NCCLS guidelines. In brief, organism suspensions are adjusted to a 0.5 McFarland standard to yield a final inoculum between 3×10^5 and 7×10^5 CFU/ml. Drug dilutions and inocula are made in sterile, cation adjusted Mueller-Hinton Broth (CAMHB) (Remel) for all but S. pneumoniae [CAMHB with 2-5% lysed horse blood (Remel)] and H. influenzae [Haemophilus Test Medium (Remel)]. An inoculum volume of 100 μl is added to wells containing 100 μl of broth with 2-fold serial dilutions of drug. All inoculated microdilution trays are incubated in ambient air at 35° C. for 18-24 hours, except for S. pneumoniae, and H. influenzae (both at 5-10% CO2).
(§4) Following appropriate incubation, the MIC is determined and the MIC is defined as the lowest concentration of the drug that prevented visible growth.
as §1, with “8” for “4”
(§5) Following appropriate incubation, the MIC is determined and the MIC is defined as the lowest concentration of the drug that prevented visible growth. […] Antibacterial activity of representative compounds of the invention were compared against telitromycin.

[2] = test system: Enterococcus faecalis Enfa_29212; assay type: cell-based; settings: Table 7, Strain ID D (Table 6): E. faecalis Enfa_29212
Description: as §1, §2, §3, §4
as §1, with “8” for “4”
as §5

[3] = test system: Staphylococcus aureus Stau_29213; assay type: cell-based; settings: Table 7, Strain ID A (Table 6): S. aureus Stau_29213; in µg/mL (unit assumed)
Description: as §1, §2, §3, §4
as §1, with “8” for “4”
as §5

[4] = test system: Staphylococcus epidermidis Step_f50654; assay type: cell-based; settings: Table 7, Strain ID C (Table 6): S. epidermidis Step_f50654; in µg/mL (unit assumed)
Description: as §1, §2, §3, §4
as §1, with “8” for “4”
as §5

[5] = test system: Staphylococcus epidermidis Step_14990; assay type: cell-based; settings: Table 7, Strain ID B (Table 6): S. epidermidis Step_14990; in µg/mL (unit assumed)
Description: as §1, §2, §3, §4
as §1, with “8” for “4”
as §5

[6] = test system: Streptococcus pneumoniae Stpn_Mef S 3427; assay type: cell-based; settings: Table 7, Strain ID L (Table 6): S. pneumoniae Stpn_Mef S 3427
Description: as §1, §2, §3, §4
as §1, with “8” for “4”
as §5

[7] = test system: Haemophilus influenzae Hain_49247; assay type: cell-based; settings: Table 7, Strain ID M (Table 6): H. influenzae Hain_49247; unit assumed
Description: as §1, §2, §3, §4
as §1, with “8” for “4”
as §5

[8] = test system: Streptococcus pneumoniae Stpn_Erm S 4297; assay type: cell-based; settings: Table 7, Strain ID J (Table 6): S. pneumoniae Stpn_Erm S 4297
Description: as §1, §2, §3, §4
as §1, with “8” for “4”
as §5

[9] = test system: S. pneumoniae Stpn_Erm 6849; assay type: cell-based, Streptococcus pneumoniae; settings: Table 7, Strain ID I (Table 6): S. pneumoniae Stpn_Erm 6849
Description: as §1, §2, §3, §4

[10] = test system: Streptococcus pneumoniae Stpn_Mef 5654; assay type: cell-based; settings: Table 7, Strain ID K (Table 6): S. pneumoniae Stpn_Mef 5654; in µg/mL (unit assumed)
Description: as §1, §2, §3, §4
as §1, with “8” for “4”
as §5

[11] = test system: Streptococcus pneumoniae Stpn_49619; assay type: cell-based; settings: Table 7, Strain ID F (Table 6): S. pneumoniae Stpn_49619
Description: as §1, §2, §3, §4
as §1, with “8” for “4”
as §5

[12] = test system: Streptococcus pneumoniae Stpn_297-749; assay type: cell-based; settings: Table 7, Strain ID G (Table 6): S. pneumoniae Stpn_297-749
Description: as §1, §2, §3, §4
as §1, with “8” for “4”
as §5

[13] = test system: Streptococcus pneumoniae Stpn_280-962; assay type: cell-based; settings: Table 7, Strain ID H (Table 6): S. pneumoniae Stpn_280-962
Description: as §1, §2, §3, §4
as §1, with “8” for “4”
as §5

| SMILES | MIC [1] | MIC ([2]; in µg/mL (unit assumed)) | MIC [3] | MIC [4] | MIC [5] | MIC [6] | MIC [7] | MIC [8] | MIC [9] | MIC [10] | MIC ([1]; unit assumed) | MIC [11] | MIC [12] | MIC [13] | MIC ([6]; in µg/mL (unit assumed)) | MIC ([8]; unit assumed) | MIC ([9]; unit assumed) | MIC [2] | MIC ([11]; unit assumed) | MIC ([13]; unit assumed) |
| --- | --- | --- | --- | --- | --- | --- | --- | --- | --- | --- | --- | --- | --- | --- | --- | --- | --- | --- | --- | --- |
| CC[C@H]1OC(=O)[C@@](C)(F)C(=O)[C@H](C)[C@@H](OC2O[C@H](C)C[C@H](N(C)C)[C@H]2O)[C@@](C)(OC)C[C@@H](C)C(=O)[C@H](C)[C@H]2N(CCCCc3ccc4ccccc4n3)C(=O)O[C@]12CC (stereo partly drawn) [65 (1), (3aS,4R,7S,9R,10R,11S,13R,15R,15aR)-3a,4-DIETHYL-7-FLUORO-11-METHOXY-7,9,11,13,15-PENTAMETHYL-2,6,8,14-TETRAOXO-1-(4-QUINOLIN-2-YLBUTYL)TETRADECAHYDRO-2H-OXACYCLOTETRADECINO[4,3-D][1,3]OXAZOL-10-YL-3,4,6-TRIDEOXY-3-(DIMETHYLAMINO)-D-XYLO-HEXOPYRANOSIDE] | =0.05 | 0.1 | 0.2 | 0.2 | 0.2 | =0.05 | 3.13 µg/mL (≈ 3.78 µM) | =0.05 | =0.05 | 0.2 |  |  |  |  |  |  |  |  |  |  |
| C/C=C/[C@]12OC(=O)N(CCCCn3cnc(-c4cccnc4)c3)[C@@H]1[C@@H](C)C(=O)[C@H](C)C[C@](C)(OC)[C@H](OC1O[C@H](C)C[C@H](N(C)C)[C@H]1O)[C@@H](C)C(=O)[C@@H](C)C(=O)O[C@@H]2CC (stereo partly drawn) [65 (2), (3aS,4R,7R,9R,10R,11S,13R,15R,15aR)-4-ETHYL-11-METHOXY-7,9,11,13,15-PENTAMETHYL-2,6,8,14-TETRAOXO-3a-[(1E)-PROP-1-ENYL]-1-[4-(4-PYRIDIN-3-YL-1H-IMIDAZOL-1-YL)BUTYL]TETRADECAHYDRO-1H-OXACYCLOTETRADECINO[4,3-D][1,3]OXAZOL-10-YL 3,4,6-TRIDEOXY-3-(DIMETHYLAMINO)-D-XYLO-HEXOPYRANOSIDE] |  | 0.78 | 3.13 | 3.13 | 3.13 |  | 25 µg/mL (≈ 29.8 µM) |  |  | 0.78 | 0.2 µg/mL (≈ 0.239 µM) | =0.05 | =0.05 | =0.05 | 0.2 | 0.4 µg/mL (≈ 0.477 µM) | 0.78 µg/mL (≈ 0.931 µM) |  |  |  |
| CCC1OC(=O)C(C)C(=O)C(C)C(OC2OC(C)CC(N(C)C)C2O)C(C)(OC)CC(C)C(=O)C(C)C2C1OC(=O)N2CCCCn1ccc2ncccc21 (stereo not drawn) [Compound 20m] | =0.05 |  | 0.2 | 0.2 | 0.1 | =0.05 | 1.56 µg/mL (≈ 2.02 µM) | =0.05 |  | 0.2 |  | =0.05 | =0.05 | =0.05 |  |  | 0.2 µg/mL (≈ 0.259 µM) | =0.05 |  |  |
| CCC1OC(=O)C(C)C(=O)C(C)C(OC2OC(C)CC(N(C)C)C2O)C(C)(OC)CC(C)C(=O)C(C)C2C1OC(=O)N2CCCCc1cnc2ccccc2c1 (stereo not drawn) [Compound 20n] | =0.05 | 0.1 | 0.4 | 0.4 | 0.2 |  | 6.25 µg/mL (≈ 7.99 µM) |  |  | 0.2 |  | =0.05 | =0.05 | =0.05 | 0.1 | 0.1 µg/mL (≈ 0.128 µM) | 0.4 µg/mL (≈ 0.512 µM) |  |  |  |
| CCC1OC(=O)C(C)C(=O)C(C)C(OC2OC(C)CC(N(C)C)C2O)C(C)(OC)CC(C)C(=O)C(C)C2C1OC(=O)N2CCCCc1cc(C)nc2ccccc12 (stereo not drawn) [Compound 20o] | =0.05 | 0.1 | 0.2 | 0.2 | 0.2 |  | 3.13 µg/mL (≈ 3.93 µM) |  |  | 0.2 |  | =0.05 | =0.05 | =0.05 | 0.1 | 0.1 µg/mL (≈ 0.126 µM) | 1.56 µg/mL (≈ 1.96 µM) |  |  |  |
| CCC1OC(=O)C(C)C(=O)C(C)C(OC2OC(C)CC(N(C)C)C2O)C(C)(OC)CC(C)C(=O)C(C)C2C1OC(=O)N2CCCCc1cc(C(F)(F)F)nc2ccccc12 (stereo not drawn) [Compound 20p] |  | 0.2 | 0.4 | 0.4 | 0.2 |  | 6.25 µg/mL (≈ 7.35 µM) |  |  | 0.78 | 0.1 µg/mL (≈ 0.118 µM) |  | =0.05 |  | 0.2 | 0.78 µg/mL (≈ 0.918 µM) | 6.25 µg/mL (≈ 7.35 µM) |  | 0.1 µg/mL (≈ 0.118 µM) | 0.1 µg/mL (≈ 0.118 µM) |
| CC[C@H]1OC(=O)[C@H](C)C(=O)[C@H](C)[C@@H](OC2O[C@H](C)C[C@H](N(C)C)[C@H]2O)[C@@](C)(OC)C[C@@H](C)C(=O)[C@H](C)[C@H]2N(CCCCn3cc(-c4cccnc4)nc3C)C(=O)O[C@]12CC (stereo partly drawn) [Example 20, (3aS,4R,7R,9R,10R,11S,13R,15R,15aR)-3a,4-diethyl-11-methoxy-7,9,11,13,15-pentamethyl-1-[4-(2-methyl-4-pyridin-3-yl-1H-imidazol-1-yl)butyl]-2,6,8,14-tetraoxotetradecahydro-2H-oxacyclotetradecino[4,3-d][1,3]oxazol-10-yl-3,4,6-trideoxy-3-(dimethylamino)-D-xylo-hexopyranoside] | =0.05 |  |  |  |  | =0.05 |  | =0.05 | =0.5 |  |  | =0.05 | =0.05 | =0.05 |  |  |  |  |  |  |
| CC[C@H]1OC(=O)[C@H](C)C(=O)[C@H](C)[C@@H](OC2O[C@H](C)C[C@H](N(C)C)[C@H]2O)[C@@](C)(OC)C[C@@H](C)C(=O)[C@H](C)[C@H]2N(CCCCn3cnc(-c4ccc(F)nc4)c3)C(=O)O[C@]12CC (stereo partly drawn) [Example 33, (3aS,4R,7R,9R,10R,11S,13R,15R,15aR)-3a,4-DIETHYL-1-14-[4-(6-FLUOROPYRIDIN-3-YL)-1H-IMIDAZOL-1-YL]BUTYL}-11-METHOXY-7,9,11,13,15-PENTAMETHYL-2,6,8,14-TETRAOXOTETRADECAHYDRO-1H-OXACYCLOTETRADECINO[4,3-D][1,3]OXAZOL-10-YL-3,4,6-TRIDEOXY-3-(DIMETHYLAMINO)-D-XYLO-HEXOPYRANOSIDE] | =0.05 |  |  |  |  |  |  |  | =0.05 |  |  |  | =0.05 | =0.05 |  |  |  |  |  |  |
| CC[C@H]1OC(=O)[C@H](C)C(=O)[C@H](C)[C@@H](OC2O[C@H](C)C[C@H](N(C)C)[C@H]2O)[C@@](C)(OC)C[C@@H](C)C(=O)[C@H](C)[C@H]2N(CCCCc3ncc(-c4cccc(N)c4)s3)C(=O)O[C@]12CC (stereo partly drawn) [Example 34, (3aS,4R,7R,9R,10R,11S,13R,15R,15aR)-1-{4-[5-(3-AMINOPHENYL)-1,3-THIAZOL-2-YL]BUTYL}-3a,4-DIETHYL-11-METHOXY-7,9,11,13,15-PENTAMETHYL-2,6,8,14-TETRAOXOTETRADECAHYDRO-1H-OXACYCLOTETRADECINO[4,3-D][1,3]OXAZOL-10-YL 3,4,6-TRIDEOXY-3-(DIMETHYLAMINO)-D-XYLO-HEXOPYRANOSIDE] | =0.05 |  |  |  |  |  |  |  | =0.05 |  |  |  | =0.05 | =0.05 |  |  |  |  |  |  |
